Source: ChEMBL document CHEMBL4480364, “Discovery of monoamine oxidase inhibitors by medicinal chemistry approaches” (Medchemcomm, 2019)

Tests used:
[1] = target: T1, Amine oxidase [flavin-containing] A (Homo sapiens, UniProt P21397); experiment: Inhibition of human MAOA
T1 sequence (P21397 whole entry): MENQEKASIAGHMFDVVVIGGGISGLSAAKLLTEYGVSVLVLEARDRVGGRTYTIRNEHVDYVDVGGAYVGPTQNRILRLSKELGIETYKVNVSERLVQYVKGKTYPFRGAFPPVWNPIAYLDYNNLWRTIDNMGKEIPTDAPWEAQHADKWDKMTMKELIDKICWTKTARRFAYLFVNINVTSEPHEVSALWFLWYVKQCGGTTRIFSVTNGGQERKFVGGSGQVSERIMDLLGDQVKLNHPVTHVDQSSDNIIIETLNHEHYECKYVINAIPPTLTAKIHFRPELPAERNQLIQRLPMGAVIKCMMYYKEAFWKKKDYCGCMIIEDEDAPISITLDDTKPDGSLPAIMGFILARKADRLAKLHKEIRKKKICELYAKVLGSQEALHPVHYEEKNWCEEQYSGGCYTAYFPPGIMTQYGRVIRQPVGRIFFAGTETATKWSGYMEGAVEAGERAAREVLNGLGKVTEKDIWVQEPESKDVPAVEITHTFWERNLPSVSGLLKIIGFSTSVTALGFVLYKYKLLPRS

Homo sapiens [2] = organism: Homo sapiens; experiment: Selectivity index, ratio of IC50 for inhibition of human MAOA to IC50 for IC50 for inhibition of human MAOB
Homo sapiens [3] = organism: Homo sapiens; experiment: Selectivity index, ratio of Ki for recombinant human MAOA to Ki for recombinant human MAOB
[4] = target: T1, Amine oxidase [flavin-containing] A; experiment: Inhibition of recombinant human MAOA using p-tyramine as substrate after 15 mins by Amplex Red dye-based fluorometric method
[5] = target: T2, Amine oxidase [flavin-containing] B (Homo sapiens, UniProt P27338); experiment: Inhibition of recombinant human MAOB using p-tyramine as substrate after 15 mins by Amplex Red dye-based fluorometric method
T2 sequence (P27338 whole entry): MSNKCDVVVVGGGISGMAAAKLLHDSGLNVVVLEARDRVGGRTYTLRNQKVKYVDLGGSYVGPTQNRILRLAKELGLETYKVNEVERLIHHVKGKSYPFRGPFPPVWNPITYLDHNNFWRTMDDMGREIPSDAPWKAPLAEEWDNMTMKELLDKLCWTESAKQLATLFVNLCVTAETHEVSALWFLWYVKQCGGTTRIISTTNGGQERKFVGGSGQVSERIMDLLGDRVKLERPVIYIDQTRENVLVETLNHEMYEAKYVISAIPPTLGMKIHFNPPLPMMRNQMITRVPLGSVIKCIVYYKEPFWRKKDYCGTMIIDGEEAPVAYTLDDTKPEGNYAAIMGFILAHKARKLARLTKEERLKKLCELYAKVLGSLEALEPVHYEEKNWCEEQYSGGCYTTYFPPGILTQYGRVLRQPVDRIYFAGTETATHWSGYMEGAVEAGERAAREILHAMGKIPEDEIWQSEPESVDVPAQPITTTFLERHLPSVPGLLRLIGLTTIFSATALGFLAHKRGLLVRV

[6] = target: T2, Amine oxidase [flavin-containing] B; experiment: Inhibition of human MAOB
Homo sapiens [7] = organism: Homo sapiens; experiment: Selectivity index, ratio of IC50 for human MAOA to IC50 for human MAOB
[8] = target: T1, Amine oxidase [flavin-containing] A; experiment: Inhibition of recombinant human MAOA using kynuramine as substrate after 30 mins by fluorescence assay
[9] = target: T3, MAO-A (amine oxidase [flavin-containing] A) (Homo sapiens, UniProt P21397); experiment: Inhibition of human MAOA at 1 uM relative to control
T3 sequence (P21397 whole entry): T1 sequence (P21397 whole entry)

[10] = target: T4, MAO-B (amine oxidase [flavin-containing] B) (Homo sapiens, UniProt P27338); experiment: Inhibition of human MAOB at 1 uM relative to control
T4 sequence (P27338 whole entry): T2 sequence (P27338 whole entry)

Work on `COc1cc(C2=NN(C(=O)Oc3ccccc3)C(c3ccc(O)c(OC)c3)C2)ccc1O` (configuration not stated) yielded a Ki [1] of 0.14 µM and a Ratio IC50 (Homo sapiens [2]) of 9e-07.

`CCc1ccc(/C=C/C(=O)c2ccc(Cl)s2)cc1` showed a Ratio Ki (Homo sapiens [3]) of 16.8 and a Ki [4] of 5.22 µM.

Compound `O=C(/C=C/c1ccc([N+](=O)[O-])cc1)c1ccc(Cl)s1` has a Ratio Ki (Homo sapiens [3]) of 0.19, a Ki [5] of 2.55 µM and a Ki [4] of 0.49 µM.

`Cn1c(=O)c2c(nc(-c3cccc(Cl)c3)n2C)n(C)c1=O` was tested, and the Ki [6] was 36 µM.

With `O=C(SCCc1ccco1)c1cc2ccccc2oc1=O` the IC50 [1] was 39.7 µM, the Ratio IC50 (Homo sapiens [7]) was 189 and the IC50 [6] was 0.2 µM.

With `CCn1c(=O)c2c(nc(/C=C/c3ccc(OC)c(OC)c3)n2C)n(CC)c1=O` [ISTRADEFYLLINE] the Ki [6] was 0.027 µM.

With `O=C1c2ccccc2C(=O)c2c(O)c(O)cc(O)c21` [PURPURIN] the IC50 [6] was > 40 µM.

Compound `Cc1ncc(/C=C/c2ccc(CN3CCOCC3)c(O)c2)c(CO)c1O` has an IC50 [8] of 16 µM.

Work on `Cn1c(=O)c2[nH]c(-c3cccc(NC(=O)/C=C/c4cccc(F)c4)c3)nc2n(C)c1=O` yielded an inhibition at 1 µM [9] of 0%, an inhibition at 1 µM [10] of 30.9% and a Ki [6] of 3.42 µM.
